From patent publication US20230025807A1 (priority 2019, published 2023)
Structures can show the parent of a compound that is named as a salt. Where two headings read alike, the source gives them in different places.

Biological target: T1, Human CD38 (Homo sapiens, UniProt P28907)
T1 construct: purchased BPS Bioscience 79287
T1 sequence (P28907 1-300): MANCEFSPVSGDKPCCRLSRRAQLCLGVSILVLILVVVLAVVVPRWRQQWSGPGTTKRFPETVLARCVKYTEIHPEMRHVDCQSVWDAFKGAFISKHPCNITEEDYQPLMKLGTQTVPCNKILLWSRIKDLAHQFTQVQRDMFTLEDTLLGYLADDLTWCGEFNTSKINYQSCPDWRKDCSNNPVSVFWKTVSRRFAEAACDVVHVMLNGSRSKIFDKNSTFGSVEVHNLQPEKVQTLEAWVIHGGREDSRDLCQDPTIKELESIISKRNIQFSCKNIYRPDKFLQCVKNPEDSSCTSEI
Assay: biochemical
Method: CD38 hydrolase buffer (4×) was thawed on ice and 1×CD38 hydrolase buffer was prepared by diluting 4×CD38 hydrolase buffer with water. CD38 hydrolase enzyme was diluted to […] with 1×CD38 hydrolase buffer (10 ng/well). Master mix was prepared by mixing equal volumes of water and CD38 hydrolase buffer (4×) and 10 μl of the mix was added to all the wells. Following master mix addition, 10 μl of the inhibitors and 20 μl of CD38 hydrolase enzyme were added to the wells. For wells designated blank, 10 μl and 20 μl of 1×CD38 hydrolase buffer was added respectively in place of CD38 enzyme and inhibitors. The plate was covered and incubated 30 min at room temperature with slow shaking at 400 rpm. After 30 min incubation, the plate was removed and 10 μl of diluted ε-NAD substrate was added to all the wells. The plate is incubated for 10 min, spun at 1200 rpm for 30 secs to remove bubbles and read in Tecan Spark using a fluorometer setting of excitation 300 nm and emission 410 nm. The reading for the blank was subtracted from all the values. IC50 for the test compounds were determined by using Graphpad prism software v7.0.

[1] = 30 min pre-incubation at room temperature, ε-NAD substrate 10 min, excitation 300 nm / emission 410 nm, read-out: hCD38 IC50

Row | SMILES | IC50 [nM] | IC50 [1] [nM]
1 | O=C(NC1CCOCC1)c1cc(-c2cncs2)cc2[nH]ccc12 [Example 45, N-(tetrahydro-2H-pyran-4-yl)-6-(thiazol-5-yl)-1H-indole-4-carboxamide] | 664 | 
2 | O=C(NCC1CCOCC1)c1cc(-c2cncs2)cc2[nH]ccc12 [Example 27, N-((tetrahydro-2H-pyran-4-yl)methyl)-6-(thiazol-5-yl)-1H-indole-4-carboxamide] | 3700 | 
3 | CS(=O)(=O)CCNC(=O)c1cc(-c2cncs2)cc2[nH]ccc12 [Example 26, N-(2-(methylsulfonyl)ethyl)-6-(thiazol-5-yl)-1H-indole-4-carboxamide] | 1000 | 
4 | O=C(N[C@@H]1CC[C@@H](O)C1)c1cc(-c2cncs2)cc2[nH]ccc12 [Example 31, N-((1R,3R)-3-hydroxycyclopentyl)-6-(thiazol-5-yl)-1H-indole-4-carboxamide] | 392 | 
5 | COCCO[C@H]1CC[C@H](NC(=O)c2cc(-c3cncs3)cc3c2ccn3C(C)C)CC1 [Example 52, 1-isopropyl-N-((1r,4r)-4-(2-methoxyethoxy)cyclohexyl)-6-(thiazol-5-yl)-1H-indole-4-carboxamide] | 1400 | 
6 | C[C@H]1CCCC[C@H]1NC(=O)c1cc(-c2cncs2)cc2[nH]ccc12 [Example 40, N-((1R,2S)-2-methylcyclohexyl)-6-(thiazol-5-yl)-1H-indole-4-carboxamide] | 78 | 
7 | COCC(C)(C)NC(=O)c1cc(-c2cncs2)cc2[nH]ccc12 [Example 42, N-(1-methoxy-2-methylpropan-2-yl)-6-(thiazol-5-yl)-1H-indole-4-carboxamide] | 3600 | 
8 | O=C(NC12CC3CC(CC(C3)C1)C2)c1cc(-c2cncs2)cc2[nH]ccc12 [Example 44, N-(adamantan-1-yl)-6-(thiazol-5-yl)-1H-indole-4-carboxamide] | 393 | 
9 | COCCO[C@H]1CC[C@H](NC(=O)c2cc(-n3ccnc3)cc3c(I)c[nH]c23)CC1 [Example 22, 5-(1H-imidazol-1-yl)-3-iodo-N-((1r,4r)-4-(2-methoxyethoxy)cyclohexyl)-1H-indole-7-carboxamide] | 169 | 
10 | COCCO[C@H]1CC[C@H](NC(=O)c2cc(-n3cccn3)cc3cc[nH]c23)CC1 [Example 2, N-((1r,4r)-4-(2-methoxyethoxy)cyclohexyl)-5-(1H-pyrazol-1-yl)-1H-indole-7-carboxamide] | > 100000 | 
11 | COCCO[C@H]1C[C@H](NC(=O)c2cc(-c3cncs3)cc3[nH]ccc23)C1 [Example 30, N-((1r,3r)-3-(2-methoxyethoxy)cyclobutyl)-6-(thiazol-5-yl)-1H-indole-4-carboxamide] |  | 761
12 | COCCCO[C@H]1CC[C@H](NC(=O)c2cc(-c3cncs3)cc3[nH]ccc23)CC1 [Example 37, N-((1r,4r)-4-(3-methoxypropoxy)cyclohexyl)-6-(thiazol-5-yl)-1H-indole-4-carboxamide] |  | 63
13 | O=C(NCc1c(F)cccc1C(F)(F)F)c1cc(-c2cncs2)cc2[nH]ccc12 [Example 25, N-(2-fluoro-6-(trifluoromethyl)benzyl)-6-(thiazol-5-yl)-1H-indole-4-carboxamide] | 78 | 
14 | O=C(NC1CCCCC1)c1cc(-c2cncs2)cc2[nH]ccc12 [Example 47, N-cyclohexyl-6-(thiazol-5-yl)-1H-indole-4-carboxamide] | 138 | 
15 | COCCO[C@H]1C[C@@H](NC(=O)c2cc(-c3cncs3)cc3[nH]ccc23)C1 [Example 32, N-((1s,3s)-3-(2-methoxyethoxy)cyclobutyl)-6-(thiazol-5-yl)-1H-indole-4-carboxamide] | 3300 | 
16 | COCCO[C@H]1CC[C@H](NC(=O)c2cc(-c3cncs3)cc3[nH]ccc23)C1 (racemic) [Example 34, N-(Trans-3-(2-methoxyethoxy)cyclopentyl)-6-(thiazol-5-yl)-1H-indole-4-carboxamide] | 265 | 
17 | O=C(N[C@H]1C[C@H](O)C1)c1cc(-c2cncs2)cc2[nH]ccc12 [Example 46, N-((1r,3r)-3-hydroxycyclobutyl)-6-(thiazol-5-yl)-1H-indole-4-carboxamide] | 678 | 
18 | COCCO[C@H]1CC[C@H](NC(=O)c2cc(-n3ccnc3)cc3c(C=O)c[nH]c23)CC1 [Example 15, 3-formyl-5-(1H-imidazol-1-yl)-N-((1r,4r)-4-(2-methoxyethoxy)cyclohexyl)-1H-indole-7-carboxamide] | 18000 | 

Row | SMILES | IC50 [nM] | IC50 [1] [nM]
19 | O=C(N[C@H]1CC[C@H](O)CC1)c1cc(-c2cncs2)cc2[nH]ccc12 [Example 41, N-((1r,4r)-4-hydroxycyclohexyl)-6-(thiazol-5-yl)-1H-indole-4-carboxamide] |  | 37
20 | COCCO[C@H]1CC[C@H](NC(=O)c2cc(-n3ccnc3)cc3ccn(C)c23)CC1 [Example 54, 5-(1H-imidazol-1-yl)-N-((1r,4r)-4-(2-methoxyethoxy)cyclohexyl)-1-methyl-1H-indole-7-carboxamide] | 375 | 
21 | CC(NC(=O)c1cc(-c2cncs2)cc2[nH]ccc12)c1ccccc1F (stereo not drawn) [Example 39, N-(1-(2-fluorophenyl)ethyl)-6-(thiazol-5-yl)-1H-indole-4-carboxamide] | 197 | 
22 | COCCO[C@H]1CC[C@H](NC(=O)c2cc(-n3ccnc3)cc3c(C(=O)O)c[nH]c23)CC1 [Example 11, 5-(1H-imidazol-1-yl)-7-(((1r,4r)-4-(2-methoxyethoxy)cyclohexyl)carbamoyl)-1H-indole-3-carboxylic acid] | 580 | 
23 | O=C(NC12CC3CC(CC(O)(C3)C1)C2)c1cc(-c2cncs2)cc2[nH]ccc12 [Example 28, N-((1r,3s,5R,7S)-3-hydroxyadamantan-1-yl)-6-(thiazol-5-yl)-1H-indole-4-carboxamide] | 523 | 
24 | COCCO[C@H]1CC[C@H](NC(=O)c2cc(-c3ncc[nH]3)cc3cc[nH]c23)CC1 [Example 6, 5-(1H-imidazol-2-yl)-N-((1r,4r)-4-(2-methoxyethoxy)cyclohexyl)-1H-indole-7-carboxamide] | > 100000 | 
25 | COCCO[C@H]1CC[C@H](NC(=O)c2cc(-n3ccnc3)cc3[nH]cc(C#N)c23)CC1 [Example 56, 3-cyano-6-(1H-imidazol-1-yl)-N-((1r,4r)-4-(2-methoxyethoxy)cyclohexyl)-1H-indole-4-carboxamide] | 9.8 | 
26 | O=C(NC1CCNCC1)c1cc(-c2cncs2)cc2[nH]ccc12 [Example 35, N-(piperidin-4-yl)-6-(thiazol-5-yl)-1H-indole-4-carboxamide hydrochloride] | 7800 | 
27 | COCCO[C@H]1CC[C@H](NC(=O)c2cc(-c3cncs3)cc3c2ccn3CC(C)(C)O)CC1 [Example 53, 1-(2-hydroxy-2-methylpropyl)-N-((1r,4r)-4-(2-methoxyethoxy)cyclohexyl)-6-(thiazol-5-yl)-1H-indole-4-carboxamide] | 3000 | 
28 | COCCO[C@H]1CC[C@H](NC(=O)c2cc(-n3ccnc3)cc3c(CN(C)C)c[nH]c23)CC1 [Example 16, 3-((dimethylamino)methyl)-5-(1H-imidazol-1-yl)-N-((1r,4r)-4-(2-methoxyethoxy)cyclohexyl)-1H-indole-7-carboxamide] | 800 | 
29 | O=C(NCc1ccc(N2CCOCC2)cc1)c1cc(-c2cncs2)cc2[nH]ccc12 [Example 33, N-(4-morpholinobenzyl)-6-(thiazol-5-yl)-1H-indole-4-carboxamide] | > 10000 | 
30 | COCCO[C@H]1CC[C@H](NC(=O)c2nc(-n3ccnc3)cc3cc[nH]c23)CC1 [Example 59, 5-(1H-imidazol-1-yl)-N-((1r,4r)-4-(2-methoxyethoxy)cyclohexyl)-1H-pyrrolo[2,3-c]pyridine-7-carboxamide] | 6 | 
31 | O=C(NC1CCS(=O)(=O)CC1)c1cc(-c2cncs2)cc2[nH]ccc12 [Example 24, N-(1,1-dioxidotetrahydro-2H-thiopyran-4-yl)-6-(thiazol-5-yl)-1H-indole-4-carboxamide] | 198 | 
32 | CC(C)(O)[C@H]1CC[C@H](NC(=O)c2cc(-c3cncs3)cc3[nH]ccc23)CC1 [Example 29, N-((1r,4r)-4-(2-hydroxypropan-2-yl)cyclohexyl)-6-(thiazol-5-yl)-1H-indole-4-carboxamide] | 123 | 
33 | COCCO[C@H]1CC[C@H](NC(=O)c2cc(-c3cncs3)cc3c2ccn3CC2COC2)CC1 [Example 50, N-((1r,4r)-4-(2-methoxyethoxy)cyclohexyl)-1-(oxetan-3-ylmethyl)-6-(thiazol-5-yl)-1H-indole-4-carboxamide] | 503 | 
34 | CC1(O)CC(NC(=O)c2cc(-c3cncs3)cc3[nH]ccc23)C1 (stereo not drawn) [Example 36, N-(3-hydroxy-3-methylcyclobutyl)-6-(thiazol-5-yl)-1H-indole-4-carboxamide] | 1500 | 
35 | COCCO[C@H]1CC[C@H](NC(=O)c2cc(-n3ccnc3)cc3c(CN)c[nH]c23)CC1 [Example 17, 3-(aminomethyl)-5-(1H-imidazol-1-yl)-N-((1r,4r)-4-(2-methoxyethoxy)cyclohexyl)-1H-indole-7-carboxamide] | 890 | 
36 | CC(C)(O)CNC(=O)c1cc(-c2cncs2)cc2[nH]ccc12 [Example 43, N-(2-hydroxy-2-methylpropyl)-6-(thiazol-5-yl)-1H-indole-4-carboxamide] | 5100 | 
